Measured values from patent US20080269346A1, “B-Blocker Pharmacogenetics in Heart Failure” (University of Florida Research Foundation, Inc., priority 2005, published 2008).

Experiments:
heart failure patients [1] = details: concomitant drug in patients on metoprolol CR/XL; linear regression on final EF
Source text: Patients were recruited for this prospective study from the University of Florida and University of North Carolina Heart Failure Clinics. All clinicians involved in clinical decision making were blinded to the genotypic data and all investigators determining the genotypes were blinded to the patient's clinical course. The study was approved by the Institutional Review Board at each institution, and each patient gave written informed consent for participation in the study. The procedures followed were in accordance with institutional guidelines. The study population included patients aged ≧18 years with symptoms of heart failure in NYHA functional class II-III, and with an EF≦40%. […] Patients were not eligible for enrollment if they were receiving β-blocker therapy.
After obtaining informed consent, a 5-mL blood sample for isolation of genomic DNA was collected. […] Left ventricular dimensions at the mid-cavity or chordal level were measured from digitized end diastolic and end systolic parasternal long axis images of the left ventricle.
Patients were divided by genotype and compared for continuous parameters (e.g., LVEF, LVEDD) at baseline as well as changes in these parameters. Comparisons were made by unpaired t-test, ANOVA, Kruskal Wallis test, or Wilcoxon rank sum as appropriate. […]

heart failure patients [2] = assay: Heart failure study: ejection fraction and heart rate response by ADRA2C Ins/Del and ADRB1 Arg389Gly genotype; assay type: in vivo, human; details: concomitant drug in patients on metoprolol CR/XL
Method: Inclusion criteria were age >18 years, NYHA functional class II-III, EF <40% and angiotensin-converting enzyme (ACE) inhibitor or angiotensin receptor blocker treatment on a stable dose for a minimum of four weeks. Patients receiving β-blocker therapy were not eligible.
At baseline, ejection fraction (EF), LV end-diastolic diameter (LVEDD) and LV endsystolic diameter (LVESD) were determined by a two-dimensional (2D) quantitative echocardiogram. Echocardiograms were analyzed by a single experienced echo-cardiologist. This individual had no knowledge of the clinical course or the genotyping results. […] The starting dose for patients in NYHA class II was 25 mg/day. […] Based on α of 0.05 and 80% power, at least 20 patients per genotype group (Ins/Ins or Del Carrier) were required to detect a difference of 6 EF units. […] Therefore, univariate linear regression models were used to predict end of study EF, LVEDD, or LVESD with the Ins/Del variable. […] The multivariate linear regressions included also variables that were significant in the univariate models. Three different step-type selection methods (backward elimination, forward elimination, and minimum R^2 improvement) were used to determine the best-fitting regression model from the maximum model. Model entry was set at P<0.1 and variables with P<0.05 stayed for the next step. […]

[3] = system: patients with heart failure; details: Metra et al. 2000; cited from earlier work
[4] = S-metoprolol plasma concentrations in heart failure patients on metoprolol CR/XL; assay type: in vivo, human; details: final metoprolol CR/XL dose, about 2 to 4 hours after dosing
Method: After obtaining informed consent, a 5-mL blood sample for isolation of genomic DNA was collected. Baseline evaluations included a two-dimensional (2D) quantitative echocardiogram for determination of measures such as ejection fraction (EF}, left ventricular end-diastolic diameter (LVEDD), LV end-systolic diameter (LVESD), and completion of a 6-minute walk test. After completion of baseline studies, patients began metoprolol CR/XL. The starting dose of metoprolol CR/XL was 12.5 mg/day for patients in NYHA class III and 25 mg/day for patients in NYHA class II. The dose was doubled on a biweekly basis to 200 mg/day or maximum tolerated dose. Thus, the time for the up-titration period was 8-10 weeks depending on the starting dose of metoprolol CR/XL. Patients underwent a follow-up echocardiogram three months after the attainment of completion of up-titration or attainment of the maximum metoprolol CR/XL dose. Thus, at the time of the follow-up echocardiogram, patients had been receiving metoprolol CR/XL for approximately 5-5.5 months. In a subset of 42 patients who consented to additional blood draws, a pharmacokinetic blood sample was obtained approximately 2 to 4 hours following dosing after two weeks on each metoprolol CR/XL dose for determination of S-metoprolol (active isomer) concentrations.

[5] = system: hypertensive men and women; assay: Hypertension study: 24-hour ambulatory blood pressure response to metoprolol by ADRA2C Ins/Del genotype
Method: In the hypertension study, 40 hypertensive men and women aged 35 to 65 years were studied. Hypertension was defined as untreated DBP between 95 mm Hg and 115 mm Hg (2 clinic visits, ≧5 minutes sitting). A certain range for systolic blood pressure (SBP) was not required for study entry. […] Medications for other indications were only allowed if it could not conceivably affect BP.
Patients took 50 mg metoprolol every 12 hours and BP was measured every week at the same time of the day to minimize the impact of diurnal BP variation. To achieve the goal DBP <90 mm Hg, the dose could be increased weekly to 100 mg and the maximum of 200 mg every 12 hours. Doses were not increased if the patient had intolerable side effects.
After the treatment phase, 24-hour ABP monitoring was repeated and blood samples for a pharmacokinetic analysis were taken.
Thus, univariate linear regression was used to model the DBP responses (24-hour, daytime) with the Ins/Del variable. […] This model would also include other, in the univariate model significant variables (P<0.1 for entry).

## NS(=O)(=O)c1cc(C(=O)O)c(NCc2ccco2)cc1Cl [Furosemide, furosemide]
Heart failure patients [1]
  Parameter Estimate for use of the drug, multivariate analysis of change in Ejection Fraction: 8.22 ejection fraction units

## CC(=O)S[C@@H]1CC2=CC(=O)CC[C@]2(C)[C@H]2CC[C@@]3(C)[C@@H](CC[C@@]34CCC(=O)O4)[C@H]12 [Spironolactone, spironolactone]
Heart failure patients [1]
  Parameter Estimate for use of the drug, multivariate analysis of change in Ejection Fraction: 6.19 ejection fraction units
Heart failure patients [2]
  Parameter estimate for use of the drug, multiple regression of treatment ejection fraction: 4.37

## COc1ccccc1OCCNCC(O)COc1cccc2[nH]c3ccccc3c12 (stereo not shown) [carvedilol]
[3]
  95% confidence intervals for the change in LVEF: −11.1 to +32.9

## COCCc1ccc(OCC(O)CNC(C)C)cc1.COCCc1ccc(OCC(O)CNC(C)C)cc1.O=C(O)CCC(=O)O (stereo not shown) [metoprolol CR/XL]
[4]; Arg389 homozygotes
  S-metoprolol plasma concentrations, median (interquartile range): 31 ng/mL
[4]; Gly 389 carriers
  S-metoprolol plasma concentrations, median (interquartile range): 19 ng/mL

## COCCc1ccc(OCC(O)CNC(C)C)cc1 (stereo not shown) [metoprolol]
[3]
  95% confidence intervals for the change in LVEF: −8.2 to +22.6
[5]; Del carrier
  24-hour SBP change: −8.3±21.6
  daytime SBP change: −9.4±21.7
  nighttime SBP change: −4.7±22.2
[5]; Del carriers
  Nighttime DBP change: 3.7±9.7 mm Hg
[5]; Ins/Ins
  24-hour SBP change: −8.8±16.4 mm Hg
  Nighttime DBP change: −8.0±8.8 mm Hg
  daytime SBP change: −9.5±16.6 mm Hg
  nighttime SBP change: −7.0±18.1 mm Hg
[5]; all 40 hypertension patients
  adverse effects: minor
